Literature values in patent publication US8598145B2, “Mitochondrially delivered anti-cancer compounds” (priority 2008, dated 2013).

Legend:
[1] = tested on: Jurkat, HBT11, MCF7, MCF7-C3; conditions: Table II; cited from earlier work
B16-F1/ nude mice = conditions: Kogure et al 2005; cited from earlier work
Jurkat, U937, Meso-2 = conditions: cited from earlier work
MCF7 = conditions: Arya et al; cited from earlier work
MDA-MB-435, MCF7 = conditions: cited from earlier work
NB4, HT93 = conditions: cited from earlier work
[2] = tested on: Jurkat, HBT1, MCF7, MCF7-C3, U937, Meso-2; conditions: cited from earlier work

In the case of `Cc1c(C)c2c(c(C)c1OC(=O)C=CC(=O)O)CCC(C)(CCCC(C)CCCC(C)CCCC(C)C)O2` (centres unmarked) [Nr 3], the IC50 [1] is listed as 22 µM.

For `Cc1c(C)c2c(c(C)c1OC(=O)C(=O)O)CCC(C)(CCCC(C)CCCC(C)CCCC(C)C)O2` (centres unmarked) [Nr 10], the “cytotoxicity in mice inoculated with B16-F1 melanoma cells” value (B16-F1/ nude mice) is listed as “non-selective cytotoxicity”.

For `Cc1c(C)c2c(c(C)c1OC(=O)CC(=O)O)CCC(C)(CCCC(C)CCCC(C)CCCC(C)C)O2` (centres unmarked) [Nr 11], the “cytotoxicity in mice inoculated with B16-F1 melanoma cells” value (B16-F1/ nude mice) is listed as “non-selective cytotoxicity”.

For `Cc1c(C)c2c(c(C)c1NC(=O)CCC(=O)O)CCC(C)(CCCC(C)CCCC(C)CCCC(C)C)O2` (centres unmarked) [Nr 12], the IC50 (Jurkat, U937, Meso-2) is given as 13 µM.

For `Cc1c(C)c2c(c(C)c1NC(=O)C=CC(=O)O)CCC(C)(CCCC(C)CCCC(C)CCCC(C)C)O2` (centres unmarked) [Nr 13], the IC50 (Jurkat, U937, Meso-2) is listed as 2 µM.

For `COC(=O)CCC(=O)Nc1c(C)c(C)c2c(c1C)CCC(C)(CCCC(C)CCCC(C)CCCC(C)C)O2` (centres unmarked) [Nr 14], the IC50 (Jurkat, U937, Meso-2) is listed as > 100 µM.

For `Cc1c(C)c2c(c(C)c1OC(=O)C(N)CCCCN)CCC(C)(CCCC(C)CCCC(C)CCCC(C)C)O2` (centres unmarked) [Nr 16], the IC50 (MCF7) is listed as 12 µM.

For `Cc1c(C)c2c(c(C)c1OCC(=O)O)CCC(C)(CCCC(C)CCCC(C)CCCC(C)C)O2` (centres unmarked) [Nr 21], the “EC50” value (MDA-MB-435, MCF7) is given as 15 to 20 µg/mL.

For `CC1=C(/C=C/C(C)=C/C=C/C(C)=C/C(=O)Oc2c(C)c(C)c3c(c2C)CCC(C)(CCCC(C)CCCC(C)CCCC(C)C)O3)C(C)(C)CCC1` (centres unmarked) [Nr 28], the IC50 (NB4, HT93) is listed as 0.1 to 1 µM.

For `Cc1cc(OC(=O)CCC(=O)O)c(C)c2c1OC(C)(CCCC(C)CCCC(C)CCCC(C)C)CC2` (centres unmarked) [Nr 32], the “IC50, printed relative to α-TOS” value [2] is given as 50% of α-TOS.

In the case of `Cc1cc(OC(=O)CCC(=O)O)cc2c1OC(C)(CCCC(C)CCCC(C)CCCC(C)C)CC2` (centres unmarked) [Nr 35], the IC50 [1] is listed as 66 µM.

For `Cc1cc(OC(=O)C=CC(=O)O)cc2c1OC(C)(CCCC(C)CCCC(C)CCCC(C)C)CC2` (centres unmarked) [Nr 36], the IC50 [1] is given as 49 µM.

In the case of `Cc1cc(NC(=O)CCC(=O)O)cc2c1OC(C)(CCCC(C)CCCC(C)CCCC(C)C)CC2` (centres unmarked) [Nr 37], the IC50 (Jurkat, U937, Meso-2) is given as 20 µM.

For `Cc1cc(NC(=O)C=CC(=O)O)cc2c1OC(C)(CCCC(C)CCCC(C)CCCC(C)C)CC2` (centres unmarked) [Nr 38], the IC50 (Jurkat, U937, Meso-2) is listed as 9 µM.
